Reference: patent US8569267B2, “Tetracyclic tetrahydrofuran derivatives containing cyclic amine side chain” (Janssen Pharmaceutica, NV, priority 2005, dated 2013)

Legend:
[1] = target: T1, human Dopamine D2L receptor (Homo sapiens, UniProt P14416); test: In vitro binding affinity for human D2L receptor ([3H]Spiperone binding); conditions: human D2L receptor-transfected CHO cell membranes; for IC50: read-out: D2L pIC50 (converted)
T1 construct: expressed in transfected cells; host or cells: CHO cells
T1 sequence (P14416 whole entry): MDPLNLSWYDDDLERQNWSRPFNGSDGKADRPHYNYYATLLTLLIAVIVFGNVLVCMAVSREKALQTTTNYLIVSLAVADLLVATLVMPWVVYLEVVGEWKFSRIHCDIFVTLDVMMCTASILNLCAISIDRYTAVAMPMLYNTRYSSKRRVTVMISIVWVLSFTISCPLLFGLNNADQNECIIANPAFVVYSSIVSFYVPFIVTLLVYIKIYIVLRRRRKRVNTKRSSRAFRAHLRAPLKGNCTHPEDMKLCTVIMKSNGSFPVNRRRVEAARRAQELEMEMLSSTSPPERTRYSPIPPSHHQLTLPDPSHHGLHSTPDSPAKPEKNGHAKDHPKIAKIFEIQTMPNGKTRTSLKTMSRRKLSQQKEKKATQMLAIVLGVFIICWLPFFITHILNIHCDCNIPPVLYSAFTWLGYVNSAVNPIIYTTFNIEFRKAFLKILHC
Outline: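 Membranes from CHO cells transfected with the receptor were incubated with [3H]Spiperone (diluted to 2 nmol/L before addition) and compound for 30 min at 37° C. Buffer was Tris-HCl, pH 7.7, with NaCl, CaCl2, MgCl2 and KCl, and non-specific binding was defined with 10^−6 mol/l Butaclamol. Bound radioactivity was collected by filtration, counted by scintillation, and competition curves calculated as percent specific binding.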

[2] = target: T2, human cloned 5-HT2A receptor, expressed in L929 cells (Homo sapiens, UniProt P28223); test: In vitro binding affinity for 5-HT2A receptor ([125I]R91150 radioligand binding); conditions: human cloned 5-HT2A receptor in L929 cells, [125I]R91150; for IC50: read-out: 5-HT2A pIC50 (converted)
T2 construct: expressed in transfected cells; host or cells: L929 cells
T2 sequence (P28223 whole entry): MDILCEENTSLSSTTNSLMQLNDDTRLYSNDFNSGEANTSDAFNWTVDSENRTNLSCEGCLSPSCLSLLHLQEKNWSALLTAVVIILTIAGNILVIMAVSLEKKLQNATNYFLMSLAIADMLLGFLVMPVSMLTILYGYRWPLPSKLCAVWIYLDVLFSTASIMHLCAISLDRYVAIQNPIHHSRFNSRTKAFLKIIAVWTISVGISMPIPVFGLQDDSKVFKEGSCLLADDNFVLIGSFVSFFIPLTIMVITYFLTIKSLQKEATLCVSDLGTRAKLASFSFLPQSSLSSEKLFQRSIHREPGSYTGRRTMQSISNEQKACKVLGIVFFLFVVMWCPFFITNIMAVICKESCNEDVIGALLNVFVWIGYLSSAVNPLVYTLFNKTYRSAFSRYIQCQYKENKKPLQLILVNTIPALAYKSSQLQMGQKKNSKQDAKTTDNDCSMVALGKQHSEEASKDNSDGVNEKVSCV
Protocol: In Vitro Binding Affinity for 5-HT2A and 5-HT2C Receptors
The interaction of the compounds of Formula (I) with 5-HT2A and 5-HT2C receptors was assessed in in vitro radioligand binding experiments. […] During the incubation, the radioligands bind to the receptor. When equilibrium of binding is reached, the receptor bound radioactivity is separated from the non-bound radioactivity, and the receptor bound activity is counted. The interaction of the test compounds with the receptors is assessed in competition binding experiments. Various concentrations of the test compound are added to the incubation mixture containing the tissue preparation and the radioligand. Binding of the radioligand will be inhibited by the test compound in proportion to its binding affinity and its concentration. The affinities of the compounds for the 5-HT2 receptors were measured by means of radioligand binding studies conducted with: (a) human cloned 5-HT2A receptor, expressed in L929 cells using [^125I]R91150 as radioligand and (b) human cloned 5-HT2C receptor, expressed in CHO cells using [^3H]mesulergine as radioligand.

[3] = target: T3, NET (norepinephrine transporter) (Rattus norvegicus, UniProt Q63380); test: In vitro determination of NET reuptake inhibition ([3H]Nixosetine binding, rat brain cortex); conditions: rat brain cortex; for IC50: read-out: NET pIC50 (converted)
T3 construct: Cortex from rat brain was collected and homogenised; from tissue; host or cells: rat brain cortex
T3 sequence (Q63380 1-617): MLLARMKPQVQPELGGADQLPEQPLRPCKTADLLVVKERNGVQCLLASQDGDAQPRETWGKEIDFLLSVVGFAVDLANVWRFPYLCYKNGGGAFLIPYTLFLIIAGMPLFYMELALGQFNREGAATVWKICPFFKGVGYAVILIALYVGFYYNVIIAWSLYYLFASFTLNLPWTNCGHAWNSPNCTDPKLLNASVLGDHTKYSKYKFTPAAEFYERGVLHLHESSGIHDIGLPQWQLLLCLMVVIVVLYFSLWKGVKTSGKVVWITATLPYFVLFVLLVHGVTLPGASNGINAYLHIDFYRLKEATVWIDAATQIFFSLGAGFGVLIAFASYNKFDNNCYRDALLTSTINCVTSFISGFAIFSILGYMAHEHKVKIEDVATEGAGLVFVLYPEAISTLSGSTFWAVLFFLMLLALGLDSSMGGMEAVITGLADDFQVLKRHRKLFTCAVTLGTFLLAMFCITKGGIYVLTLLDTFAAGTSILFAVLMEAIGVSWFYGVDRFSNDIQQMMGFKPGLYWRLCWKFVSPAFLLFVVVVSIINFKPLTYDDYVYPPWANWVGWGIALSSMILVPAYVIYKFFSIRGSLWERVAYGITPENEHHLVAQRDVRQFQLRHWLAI
Outline: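 Rat cortex homogenised in Tris 50 mM, NaCl 120 mM, KCl 5 mM, pH 7.4 was used for competition binding against [3H]nisoxetine. Bound radioligand was collected by filtration on GF/B filters and counted by scintillation. Percentage specific binding and competition curves were derived.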

[4] = target: T4, human cloned 5-HT2C receptor, expressed in CHO cells (Homo sapiens, UniProt P28335); test: In vitro binding affinity for 5-HT2C receptor ([3H]mesulergine radioligand binding); conditions: human cloned 5-HT2C receptor; for IC50: read-out: 5-HT2C pIC50 (converted)
T4 construct: expressed in transfected cells; host or cells: CHO cells
T4 sequence (P28335 33-458): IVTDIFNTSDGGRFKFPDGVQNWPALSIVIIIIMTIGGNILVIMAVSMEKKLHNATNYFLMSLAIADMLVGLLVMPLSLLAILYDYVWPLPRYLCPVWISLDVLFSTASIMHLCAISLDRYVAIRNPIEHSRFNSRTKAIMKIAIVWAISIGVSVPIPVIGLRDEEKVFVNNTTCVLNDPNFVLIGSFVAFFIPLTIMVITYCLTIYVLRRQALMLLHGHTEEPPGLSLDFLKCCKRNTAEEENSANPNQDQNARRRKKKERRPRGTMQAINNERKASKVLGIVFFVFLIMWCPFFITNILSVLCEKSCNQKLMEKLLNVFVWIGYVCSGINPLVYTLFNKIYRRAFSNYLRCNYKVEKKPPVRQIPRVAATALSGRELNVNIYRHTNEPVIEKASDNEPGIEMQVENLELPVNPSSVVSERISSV
Outline: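 Competition radioligand binding: varying test-compound concentrations incubated with receptor preparation and radioligand to binding equilibrium. Bound radioactivity separated from free and counted; affinity inferred from concentration-dependent inhibition of radioligand binding.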

Structure (SMILES)	IC50 [1] [nM]	IC50 [2] [nM]	IC50 [3] [nM]	IC50 [4] [nM]	D2L pIC50 [1]	5-HT2A pIC50 [2]	NET pIC50 [3]	5-HT2C pIC50 [4]
O=C(NCCCc1ccccc1)N1CCN(CC2CC3c4ccccc4Cc4ccc(F)cc4C3O2)CC1 (stereo not drawn) [Compound 93]	11.7	2.57	4170	5.01	–	–	–	–
Cc1ccc(C(=O)OC2CCN(CC3CC4c5ccccc5Cc5ccc(F)cc5C4O3)C2)cc1 (mixture of isomers) [Compound 15]	7.41	7.94	2090	6.31	–	–	–	–
O=C(NC1CCCCC1)N1CCN(CC2CC3c4ccccc4Cc4ccc(F)cc4C3O2)CC1 (stereo not drawn) [Compound 95]	69.2	1.74	9550	7.59	–	–	–	–
CSCCNC(=O)N1CCN(CC2CC3c4ccccc4Cc4ccc(F)cc4C3O2)CC1 (stereo not drawn) [Compound 87]	25.7	1.26	5890	3.09	–	–	–	–
O=C(C1CCN(CC2CC3c4ccccc4Cc4ccc(F)cc4C3O2)CC1)N1CC=CC1 (stereo not drawn) [Compound 201]	41.7	0.617	> 10000	10.5	–	–	–	–
O=C(O)CC1CN(C[C@H]2C[C@@H]3c4ccccc4Cc4ccc(F)cc4[C@@H]3O2)CCO1 (stereo partly drawn) [Compound 134]	41.7	< 10	42.7	1.38	–	–	–	–
COc1cccc(OC2CCN(CC3CC4c5ccccc5Cc5ccc(F)cc5C4O3)C2)c1 (mixture of isomers) [Compound 31]	13.5	9.77	4070	3.24	–	–	–	–
Fc1ccc2c(c1)C1OC(CN3CCN(Cc4cccc(Oc5ccccc5)c4)CC3)CC1c1ccccc1C2 (stereo not drawn) [Compound 76]	67.6	66.1	851	102	–	–	–	–
OCCC1CN(C[C@H]2C[C@@H]3c4ccccc4Cc4ccc(F)cc4[C@@H]3O2)CCO1 (stereo partly drawn) [Compound 129]	29.5	< 10	417	7.59	–	–	–	–
O=C(NC(=S)N1CCN(CC2CC3c4ccccc4Cc4ccc(F)cc4C3O2)CC1)c1ccccc1 (stereo not drawn) [Compound 111]	27.5	3.89	3090	9.77	–	–	–	–
CC1(O)CCN(C[C@H]2C[C@@H]3c4ccccc4Cc4ccc(F)cc4[C@@H]3O2)C1 (stereo partly drawn) [Compound 39]	3.09	0.631	1950	0.513	–	–	–	–
COC(=O)C1CCN(C[C@H]2C[C@@H]3c4ccccc4Cc4ccc(F)cc4[C@@H]3O2)C1 (single isomer, unassigned) [Compound 11, [2R-(2α, 3aα, 12bβ)]-(3′RS) 1-(11-fluoro-3,3a,8,12b-tetrahydro-2H-1-oxa-dibenzo[e,h]azulen-2-ylmethyl)-pyrrolidine-3-carboxylic acid methyl ester.oxalate (1:1)]	9.77	2.04	8320	0.708	–	–	–	–
O=C(O)C(=O)O.OC1CCN(CC2CC3c4ccccc4Oc4ccc(Cl)cc4C3O2)CC1 (stereo not drawn) [Compound 284]	–	–	–	–	7.14	7.98	<5	7.38
O=C(OC1CCN(CC2CC3c4ccccc4Cc4ccc(F)cc4C3O2)C1)c1ccc(F)cc1F (mixture of isomers) [Compound 17]	6.03	5.75	1740	4.68	–	–	–	–
N#Cc1ccc2c(c1)[C@H]1C[C@@H](CN3CCC(O)C3)O[C@H]1c1cc(F)ccc1S2 (relative stereo) [Compound 260]	24.5	2.24	912	3.09	–	–	–	–
Fc1ccc2c(c1)[C@@H]1O[C@@H](CN3CCc4ccccc4C3)C[C@@H]1c1ccccc1C2.O=C(O)C(F)(F)F [Compound 275]	–	–	–	–	8.03	8.52	5.49	8.66
OCC1CCN(C[C@H]2C[C@@H]3c4ccccc4Cc4ccc(F)cc4[C@@H]3O2)C1 (stereo partly drawn) [Compound 5]	8.51	< 10	4070	0.204	–	–	–	–

Structure (SMILES)	IC50 [1] [nM]	IC50 [2] [nM]	IC50 [3] [nM]	IC50 [4] [nM]	D2L pIC50 [1]	5-HT2A pIC50 [2]	NET pIC50 [3]	5-HT2C pIC50 [4]
Fc1ccc2c(c1)C1OC(CN3CCN(Cc4cnc(-c5ccccc5)[nH]4)CC3)CC1c1ccccc1C2 (stereo not drawn) [Compound 67]	8.51	3.16	4900	4.27	–	–	–	–
Fc1ccc2c(c1)C1OC(CN3CCC(Oc4cccc(C(F)(F)F)c4)C3)CC1c1ccccc1C2 (mixture of isomers) [Compound 37]	32.4	22.4	> 10000	7.94	–	–	–	–
Fc1ccc(OCCN2CCN(CC3CC4c5ccccc5Cc5ccc(F)cc5C4O3)CC2)cc1 (stereo not drawn) [Compound 54]	2.45	7.59	2190	8.13	–	–	–	–
Fc1ccc2c(c1)C1OC(CN3CCN(Cc4cccs4)CC3)CC1c1ccccc1C2 (stereo not drawn) [Compound 58]	7.41	11	977	25.7	–	–	–	–
O=C(NCCCn1ccnc1)C1CCN(CC2CC3c4ccccc4Cc4ccc(F)cc4C3O2)CC1 (stereo not drawn) [Compound 180]	37.2	2.45	> 10000	3.89	–	–	–	–
CC(=O)C1(c2ccccc2)CCN(C[C@H]2C[C@@H]3c4ccccc4Cc4ccc(F)cc4[C@@H]3O2)CC1.O=C(O)C(=O)O [Compound 273]	–	–	–	–	7.71	8.48	<5	8.24
OC(COCc1ccco1)CN1CCN(CC2CC3c4ccccc4Cc4ccc(F)cc4C3O2)CC1 (mixture of isomers) [Compound 55]	8.13	2.69	1820	3.16	–	–	–	–
O=S(=O)(c1ccccc1)N1CCN(CC2CC3c4ccccc4Cc4ccc(F)cc4C3O2)CC1 (stereo not drawn) [Compound 106]	44.7	16.6	9550	61.7	–	–	–	–
Fc1ccc2c(c1)C1OC(CN3CCN(Cc4ccc(-c5ccc(Cl)cc5)o4)CC3)CC1c1ccccc1C2 (stereo not drawn) [Compound 62]	75.9	47.9	3470	107	–	–	–	–
COc1cc(OC)c(CNC(=O)C2CCN(CC3CC4c5ccccc5Cc5ccc(F)cc5C4O3)CC2)c(OC)c1 (stereo not drawn) [Compound 186]	7.08	2.4	3550	2.34	–	–	–	–
O=C(NC1CCN(CC2CC3c4ccccc4Cc4ccc(F)cc4C3O2)CC1)c1ccc(Cl)cc1Cl (stereo not drawn) [Compound 230]	6.03	2.95	5750	12.6	–	–	–	–
O=C(O)C(=O)O.OC1CCN(CC2CC3c4ccccc4Oc4ccc(Br)cc4C3O2)CC1 (stereo not drawn) [Compound 286]	–	–	–	–	7.50	8.33	<5	7.81
COc1ccc2c(c1)C1OC(CN3CCC(O)CC3)CC1c1ccccc1O2.O=C(O)C(=O)O (racemic) [Compound 288]	–	–	–	–	6.08	7.18	<5	6.71
CCOC(=O)C=C1CCN(CC2CC3c4ccccc4Cc4ccc(F)cc4C3O2)CC1 (stereo not drawn) [Compound 165]	38.9	10.7	3630	27.5	–	–	–	–
Fc1ccc2c(c1)C1OC(CN3CCN(Cc4cnc[nH]4)CC3)CC1c1ccccc1C2 (stereo not drawn) [Compound 66]	13.8	7.41	4370	37.2	–	–	–	–
O=C(O)C1CCN(C[C@H]2C[C@@H]3c4ccccc4Cc4ccc(F)cc4[C@@H]3O2)C1 (stereo partly drawn) [Compound 10]	437	17.4	> 10000	13.5	–	–	–	–
